# Structures can show the parent of a compound that is named as a salt.
# Legend:
# mouse EP1 [1] = biological target: T1, mouse EP1 (Mus musculus, UniProt P35375); test: Binding assay using expression cell of prostanoid receptor subtype (3H-PGE2 competition, membrane fraction); set-up: expressed in transfected cells; host or cells: CHO cells, membrane fraction; settings: competition of 3H-PGE2 (2.5 nM) binding, CHO cell membrane fraction
# T1 sequence (P35375 1-405): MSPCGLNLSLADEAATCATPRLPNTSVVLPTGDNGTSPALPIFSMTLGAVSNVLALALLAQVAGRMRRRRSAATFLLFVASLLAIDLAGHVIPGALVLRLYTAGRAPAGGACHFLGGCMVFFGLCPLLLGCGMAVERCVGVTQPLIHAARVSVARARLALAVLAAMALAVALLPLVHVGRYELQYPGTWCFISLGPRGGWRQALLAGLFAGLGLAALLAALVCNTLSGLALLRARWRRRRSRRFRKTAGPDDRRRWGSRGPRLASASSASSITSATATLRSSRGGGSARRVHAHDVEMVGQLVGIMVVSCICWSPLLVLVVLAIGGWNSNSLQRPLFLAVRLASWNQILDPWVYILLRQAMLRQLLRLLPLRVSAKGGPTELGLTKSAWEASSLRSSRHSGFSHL
# Procedure: (i) Binding Assay Using Expression Cell of Prostanoid Receptor Subtype
# The preparation of membrane fraction was carried out according to the method of Sugimoto et al. (J. Biol. Chem., 267, 6463-6466 (1992)), using expression CHO cell of prostanoid receptor subtype (mouse EP1, EP2, EP3α or EP4).
# The standard assay mixture containing membrane fraction (0.5 mg/ml) and ^3H-PGE2 in a final volume of 200 μl was incubated for 1 hour at room temperature. The reaction was terminated by addition of ice-cold buffer (3 ml). The mixture was rapidly filtered through a glass filter (GF/B). The radioactivity associated with the filter was measured by liquid scintillation counting.
# Kd and Bmax values were determined from Scatchard plots (Ann. N.Y. Acad. Sci., 51, 660 (1949)). Non-specific binding was calculated as the binding in the presence of an excess (2.5 μM) of unlabeled PGE2. In the experiment for competition of specific ^3H-PGE2 binding by the compound of the present invention, ^3H-PGE2 (2.5 nM) and the compound of the present invention were added. The following buffer was used in all reaction.
# Buffer: potassium phosphate (pH 6.0, 10 mM), EDTA (1 mM), MgCl2 (10 mM) and NaCl (0.1 M).
# The dissociation constant Ki (μM) of each compound was calculated by the following equation. Ki=IC50/(1+([C]/Kd))
# wherein [C] is concentration of ^3H-PGE2 used in the reaction
# mouse EP1 [2] = biological target: T1, mouse EP1; test: Receptor antagonism using cells expressing EP1 in the presence of BSA (intracellular calcium); format: cell-based; set-up: expressed in transfected cells; settings: inhibition of PGE2 (100 nM)-induced increase of intracellular calcium; assay buffer with 1% (w/v) BSA
# Procedure: (ii) Experimental Measurement of the Activity of Receptor Antagonism Using Cells Expressing Prostanoid Receptor Subtype EP1 in the Presence of BSA (Bovine Serum Albumin)
# The cells expressing mouse EP1 receptor were seeded at 1×10^4 cells/well in 96 well plates and cultured for 2 days with 10% FBS (fetal bovine serum)/minimum essential medium Eagle alpha modification (αMEM) in the incubator (37° C., 5% CO2). The cells in each well were rinsed with phosphate buffer (PBS(−)), and load buffer was added. After incubation for 1 hour, the load buffer was discarded. After the addition of the assay buffer to each well, the cells were incubated in a dark place at room temperature for 1 hour. After the addition of a compound of the present invention (10 μl) and PGE2 (10 μl) which were prepared with assay buffer, intracellular calcium concentration was measured with Fluorescence drug screening system (FDSS-4000, Hamamatsu Photonics). A pair of fluorescence intensities emitted 500 nm by an excitation wavelength of each 340 nm and 380 nm was measured.
# The EP1 antagonist activity was estimated as percent inhibition of the increase of intracellular calcium concentration induced by PGE2 (100 nM).
# Load buffer: 10% FBS/αMEM containing 5 μM of Fura 2/AM, 20 μM of indomethacin, 2.5 mM of probenecid
# Assay buffer: Hank's balanced salt solution (HBSS) containing 1% (w/v) BSA, 2 μM of indomethacin, 2.5 mM of probenecid and 10 mM of HEPES-NaOH
# [3] = Stability measured on HPLC (Comparison Example 1); format: physicochemical; settings: for Stability (in words): comment on Table 4
# Procedure: A Comparison of the Stability of 4-methyl-2-thiazolylsulfonyl chloride with that of the Compound Prepared in Examples 8 and 9
# The solution prepared in Reference Example 1 was concentrated under reduced pressure to give 4-methyl-2-thiazolylsulfonyl chloride. The stability of this compound and the compounds prepared in Examples 8 and 9 was measured on HPLC. The conditions of HPLC were as follows.
# Column: YMC-Pack ODS-AM-302(4.6 mm*150 mm)
# Eluting solvent: MeCN/3 mM tetra-n-butylammonium phosphate=40/60
# EP1 receptor = test: Inhibition of sulprostone-induced increase of intravesical pressure of bladder in rats; format: in vivo, rat; settings: female Wistar rats, 1 mg/kg intraduodenal, 40 minutes after administration
# Source text: (iii) Experiment to Assess the Inhibition of Sulprostone-Induced Increase of Intravesical Pressure of Bladder in Rats.
# Female rats (Wistar) were anesthetized by urethane and their both ureters were ligated and cut off at the kidney side. The urinary bladder was incised its top and catheter was inserted. The other end of catheter was connected to the pressure transducer and the infusion pump. Repeated micturition reflex, which was induced by the continuous infusion of citrate buffer (pH 3.5) into the bladder, was recorded. The increase of micturition pressure was elicited by the subcutaneous injection of diclofenac (5 mg/kg) and sulprostone (300 μg/kg). Since such an increasing effect was not observed by the treatment of EP3 agonist, it was considered that this increase was caused by the activation of EP1 receptor. The inhibitory effects of the compound of the present invention on this increase of intravesical pressure were measured for 60 minutes after the intraduodenal administration (2 ml/kg).
Ki (mouse EP1 [1]) [nM],IC50 (mouse EP1 [2]) [nM],SMILES,further results
0.8,200,"Cc1ccc(N(CC(C)C)S(=O)(=O)c2ccco2)c(OCc2ccc(C(=O)O)cc2)c1 [Example 18 (93), reference compound]",–
3.9,9.2,"Cc1cc(OCc2ccc(/C=C/C(=O)O)cc2C)c(N(CC(C)C)S(=O)(=O)c2cccnc2)cc1C [Example 2 (94), 3-methyl-4-[2-[N-isobutyl-N-(3-pyridylsulfonyl)amino]-4,5-dimethylphenoxymethyl]cinnamic acid]",–
0.32,7.2,"Cc1ccc(S(=O)(=O)N(CC(C)C)c2cc(C)c(C)cc2OCc2ccc(C(=O)O)cc2)o1 [Example 2 (6), 4-[2-[N-isobutyl-N-(5-methyl-2-furylsulfonyl)amino]-4,5-dimethylphenoxymethyl]benzoic acid]",–
–,–,"Cc1csc(S(=O)(=O)On2nnc3ccccc32)n1 [Example 8, 1-(4-methylthiazol-2-ylsulfonyloxy)-1,2,3-benzotriazole]","Residual Rate (%) ([3]; 40 °C, 24 hour): 99.8%; Stability (in words) [3]: stable even at high temperature"
4.2,7.8,"Cc1ccc(S(=O)(=O)N(CC(C)C)c2cc(C)c(C)cc2OCc2ccc(C(=O)O)cc2C)o1 [Example 2, 3-methyl-4-[2-[N-isobutyl-N-(5-methyl-2-furylsulfonyl)amino]-4,5-dimethylphenoxymethyl]benzoic acid]",Inhibition (%) (40 minutes later) (EP1 receptor): 68 ± 1%
0.8,3.7,"Cc1cc(OCc2ccc(-c3nnn[nH]3)cc2Cl)c(N(C(C)C)S(=O)(=O)c2cccnc2)cc1C [Example 3 (30), N-[4,5-dimethyl-2-[2-chloro-4-(5-tetrazolyl)phenylmethyloxy]phenyl]-N-isopropyl-3-pyridylsulfonylamide]",–
1,260,"CC(C)CN(c1ccc(Cl)cc1OCc1ccc(C(=O)O)cc1)S(=O)(=O)c1ccco1 [Example 18 (121), reference compound]",–
–,–,"Cc1csc(S(=O)(=O)Cl)n1 [4-methyl-2-thiazolylsulfonyl chloride, 4-methyl-2-thiazolylsulfonylchloride]","Residual Rate (%) ([3]; 1 °C, 24 hour): 102.0%; Residual Rate (%) ([3]; 1 °C, 48 hour): 96.3%; Residual Rate (%) ([3]; 1 °C, 72 hour): 98.6%; Residual Rate (%) ([3]; 20 °C, 24 hour): 71.4%; Residual Rate (%) ([3]; 20 °C, 48 hour): 20.6%; Residual Rate (%) ([3]; 20 °C, 66 hour): 2.0%; Residual Rate (%) ([3]; 40 °C, 16 hour): 60.9%; Residual Rate (%) ([3]; 40 °C, 24 hour): 7.6%; Stability (in words) [3]: stable at low temperature, but when subjected to room temperature or higher, it is hard to assure the stability"
1.3,1340,"CC(C)CN(c1cc(Cl)ccc1OCc1ccc(C(=O)O)cc1)S(=O)(=O)c1ccco1 [Example 18 (125), reference compound]",–
2.3,4.9,"Cc1csc(S(=O)(=O)N(c2cc(C)c(Cl)cc2OCc2ccc(-c3nnn[nH]3)cc2C)C(C)C)n1 [Example 3 (11), N-[4-chloro-5-methyl-2-[2-methyl-4-(5-tetrazolyl)phenylmethyloxy]phenyl]-N-isopropyl-(4-methyl-2-thiazolyl)sulfonylamide]",–
0.8,7.1,"Cc1csc(S(=O)(=O)N(c2cc(C)c(C)cc2OCc2ccc(-c3noc(=O)[nH]3)cc2)C(C)C)n1 [Example 4 (14), N-[4,5-dimethyl-2-[4-(5-oxo-1,2,4-oxadiazol-3-yl)phenylmethyloxy]phenyl]-N-isopropyl-(4-methyl-2-thiazolyl)sulfonylamide]",–
5.5,470,"Cc1ccc(OCc2ccc(C(=O)O)cc2)c(N(CC(C)C)S(=O)(=O)c2ccco2)c1 [Example 18 (113), reference compound]",–
–,–,"Cc1csc(S(=O)(=O)n2cc[n+](C)c2)n1 [Example 9, 1-(4-methylthiazol-2-ylsulfonyl)-3-methylimidazol-1-onium hydrogen chloride salt]","Residual Rate (%) ([3]; 40 °C, 24 hour): 99.6%; Stability (in words) [3]: stable even at high temperature"
7.9,21,"Cc1ccc(S(=O)(=O)N(CC(C)C)c2cc3c(cc2OCc2ccc(/C=C/C(=O)O)cc2)CCC3)o1 [Example 2 (32), 4-[6-[N-isobutyl-N-(5-methyl-2-furylsulfonyl)amino]indan-5-yloxymethyl]cinnamic acid]",–
6.6,4.1,"Cc1ccc(S(=O)(=O)N(CC(C)C)c2cc3c(cc2OCc2ccc(C(=O)O)cc2C)CCC3)o1 [Example 2 (33), 3-methyl-4-[6-[N-isobutyl-N-(5-methyl-2-furylsulfonyl)amino]indan-5-yloxymethyl]benzoic acid]",Inhibition (%) (40 minutes later) (EP1 receptor): 79 ± 11%
1.4,7.3,"Cc1cc(OCc2ccc(C(=O)O)cc2C)c(N(CC(C)C)S(=O)(=O)c2ccccn2)cc1C [Example 2 (87), 3-methyl-4-[2-[N-isobutyl-N-(2-pyridylsulfonyl)amino]-4,5-dimethylphenoxymethyl]benzoic acid]",–
1.5,25,"Cc1csc(S(=O)(=O)N(CC(C)C)c2ccc(C(F)(F)F)cc2OCc2ccc(/C=C/C(=O)O)cc2)n1 [Example 2 (41), 4-[2-[N-isobutyl-N-(4-methyl-2-thiazolylsulfonyl)amino]-5-trifluoromethylphenoxymethyl]cinnamic acid]",–
